Read-outs that look alike come from different tables or passages of the source. Some results are limits rather than exact numbers.

For this experiment, the target named is T1, BRM (Homo sapiens, UniProt P51531).
T1 construct: In-Cell Western Screen of BRM Degradation in SW1573 Cells; endogenous in cells; host or cells: SW1573
In words: In-cell Western screen of BRM degradation in SW1573 cells (Dmax and DC50). The experiment is classed as cell-based. In outline: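 BRM levels were read by LI-COR in-cell Western after two-channel (800/680 nm) immunostaining of fixed, Triton-permeabilised SW1573 cells.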

The mark [1] stands for this setting: BRM degradation, SW1573 cells, read-out: DC50.
The mark [2] stands for this setting: BRM degradation, SW1573 cells, when tested at the top concentration of between 0.3 and 10 μM, read-out: Dmax (%) (% degraded).
[3] abbreviates: BRM degradation, SW1573 cells, tested at the top concentration of between 0.3 and 10 μM, read-out: Dmax (%) (% degraded).
Setting [4] is: BRM degradation, SW1573 cells, Table 2D, read-out: *DC50.

T1 sequence (P51531 whole entry): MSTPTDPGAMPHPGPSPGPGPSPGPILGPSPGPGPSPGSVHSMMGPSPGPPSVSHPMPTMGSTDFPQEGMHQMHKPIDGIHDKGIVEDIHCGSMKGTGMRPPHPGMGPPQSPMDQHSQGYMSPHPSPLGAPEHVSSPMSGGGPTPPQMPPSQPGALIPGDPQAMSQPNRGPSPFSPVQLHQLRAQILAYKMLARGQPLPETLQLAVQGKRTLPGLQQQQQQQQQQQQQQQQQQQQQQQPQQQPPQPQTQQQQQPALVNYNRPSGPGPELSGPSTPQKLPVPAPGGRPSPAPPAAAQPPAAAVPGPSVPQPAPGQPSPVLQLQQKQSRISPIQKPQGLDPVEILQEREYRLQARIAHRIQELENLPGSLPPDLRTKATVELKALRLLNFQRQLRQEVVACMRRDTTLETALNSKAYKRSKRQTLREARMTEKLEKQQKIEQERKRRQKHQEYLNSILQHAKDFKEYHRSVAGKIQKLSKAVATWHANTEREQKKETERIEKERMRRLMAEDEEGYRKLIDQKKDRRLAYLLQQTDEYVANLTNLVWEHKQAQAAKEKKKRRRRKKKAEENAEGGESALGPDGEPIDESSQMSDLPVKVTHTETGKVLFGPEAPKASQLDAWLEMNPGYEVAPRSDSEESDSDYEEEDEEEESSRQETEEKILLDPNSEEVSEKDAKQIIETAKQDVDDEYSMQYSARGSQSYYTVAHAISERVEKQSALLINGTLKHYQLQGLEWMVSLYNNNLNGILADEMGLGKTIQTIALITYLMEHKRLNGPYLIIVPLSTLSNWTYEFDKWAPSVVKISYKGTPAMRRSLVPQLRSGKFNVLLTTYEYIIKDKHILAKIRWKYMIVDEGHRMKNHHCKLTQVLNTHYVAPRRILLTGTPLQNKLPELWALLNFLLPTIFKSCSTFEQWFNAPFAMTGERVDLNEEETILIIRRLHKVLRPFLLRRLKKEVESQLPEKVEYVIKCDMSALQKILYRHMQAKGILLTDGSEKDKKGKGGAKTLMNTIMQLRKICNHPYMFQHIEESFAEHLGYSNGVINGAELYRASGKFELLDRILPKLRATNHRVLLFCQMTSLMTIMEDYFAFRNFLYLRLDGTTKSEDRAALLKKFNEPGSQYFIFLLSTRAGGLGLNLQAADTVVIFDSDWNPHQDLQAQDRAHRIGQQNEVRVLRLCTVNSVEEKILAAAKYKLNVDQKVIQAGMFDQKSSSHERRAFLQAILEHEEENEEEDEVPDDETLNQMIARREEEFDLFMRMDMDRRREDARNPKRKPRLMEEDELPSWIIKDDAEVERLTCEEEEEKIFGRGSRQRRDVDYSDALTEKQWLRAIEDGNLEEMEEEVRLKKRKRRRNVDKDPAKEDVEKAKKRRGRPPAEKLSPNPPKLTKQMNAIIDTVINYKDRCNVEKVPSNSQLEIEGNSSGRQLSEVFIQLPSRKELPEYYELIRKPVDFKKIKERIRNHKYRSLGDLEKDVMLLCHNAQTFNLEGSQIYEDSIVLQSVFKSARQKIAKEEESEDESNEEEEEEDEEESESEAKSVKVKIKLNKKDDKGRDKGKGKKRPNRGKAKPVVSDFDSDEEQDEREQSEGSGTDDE

The term DC50 denotes the midpoint of the concentration-degradation curve. The Dmax is the greatest extent of degradation seen. Consider `Cc1ncsc1-c1ccc(CNC(=O)[C@@H]2C[C@@H](O)CN2C(=O)[C@@H](c2cc(OCCN3CCN(CCCc4cc(N5C6CCC5CN(c5cc(-c7ccccc7O)nnc5N)C6)ccn4)CC3)no2)C(C)C)cc1` [compound 44, (2S,4R)-1-[(2R)-2-[3-(2-[4-[3-(4-[3-[3-amino-6-(2-hydroxyphenyl)pyridazin-4-yl]-3,8-diazabicyclo[3.2.1]octan-8-yl]pyridin-2-yl)propyl]piperazin-1-yl]ethoxy)-1,2-oxazol-5-yl]-3-methylbutanoyl]-4-hydroxy-N-[[4-(4-methyl-1,3-thiazol-5-yl)phenyl]methyl]pyrrolidine-2-carboxamide], for which the DC50 under setting [1] was 10 to 30 nM. For the same molecule, the Dmax under setting [2] was more than 75%.

As for `Cc1nccn1-c1ccc([C@H](C)NC(=O)[C@@H]2C[C@@H](O)CN2C(=O)[C@@H](c2cc(OCCN3CCN(CCOc4cc(N5C6CCC5CN(c5cc(-c7ccccc7O)nnc5N)C6)ccn4)CC3)no2)C(C)C)cc1` [compound 76, (2S,4R)-1-((2R)-2-(3-(2-(4-(2-((4-(3-(3-amino-6-(2-hydroxyphenyl)pyridazin-4-yl)-3,8-diazabicyclo[3.2.1]octan-8-yl)pyridin-2-yl)oxy)ethyl)piperazin-1-yl)ethoxy)isoxazol-5-yl)-3-methylbutanoyl)-4-hydroxy-N-((S)-1-(4-(2-methyl-1H-imidazol-1-yl)phenyl)ethyl)pyrrolidine-2-carboxamide], the 50% degradation concentration (DC50) under setting [1] was less than 2.5 nM. In addition, under setting [2], the Dmax is more than 75%.

As to `Cc1ncsc1-c1ccc([C@H](C)NC(=O)[C@@H]2C[C@@H](O)CN2C(=O)[C@@H](c2cc(OCCN3CCN(CCC#CCn4cc(-c5cc(-c6ccccc6O)nnc5N)cn4)CC3)no2)C(C)C)cn1` [compound 352, (2S,4R)-1-((R)-2-(3-(2-(4-(5-(4-(3-amino-6-(2-hydroxyphenyl)pyridazin-4-yl)-1H-pyrazol-1-yl)pent-3-yn-1-yl)piperazin-1-yl)ethoxy)isoxazol-5-yl)-3-methylbutanoyl)-4-hydroxy-N-((S)-1-(6-(4-methylthiazol-5-yl)pyridin-3-yl)ethyl)pyrrolidine-2-carboxamide], the half-maximal degradation concentration (DC50) under setting [1] was less than 2.5 nM. Also, the greatest degradation seen (Dmax) under setting [3] is more than 75%.

With `Cc1ncsc1-c1ccc([C@H](CO)NC(=O)[C@@H]2C[C@@H](O)CN2C(=O)[C@H](c2cc(OCCN3CCC(O[C@H]4C[C@H](Oc5cc(N6C7CCC6CN(c6cc(-c8ccccc8O)nnc6N)C7)ccn5)C4)CC3)no2)C(C)C)cc1` [compound 200, (2S,4R)-1-((2S)-2-(3-(2-(4-((1r,3S)-3-((4-(3-(3-amino-6-(2-hydroxyphenyl)pyridazin-4-yl)-3,8-diazabicyclo[3.2.1]octan-8-yl)pyridin-2-yl)oxy)cyclobutoxy)piperidin-1-yl)ethoxy)isoxazol-5-yl)-3-methylbutanoyl)-4-hydroxy-N-((R)-2-hydroxy-1-(4-(4-methylthiazol-5-yl)phenyl)ethyl)pyrrolidine-2-carboxamide], under setting [1], the half-maximal degradation concentration (DC50) lay within 2.5 to 10 nM. Further, under setting [3], the Dmax is more than 75%.

With `Cc1ncsc1-c1ccc([C@H](C)NC(=O)[C@@H]2C[C@@H](O)CN2C(=O)[C@@H](c2cc(N3CCC(CO[C@H]4C[C@H](Oc5cc(N6C7CCC6CN(c6cc(-c8ccccc8O)nnc6N)C7)ccn5)C4)CC3)no2)C(C)C)cc1` [compound 434, (2S,4R)-1-((2R)-2-(3-(4-(((1r,3R)-3-((4-(3-(3-amino-6-(2-hydroxyphenyl)pyridazin-4-yl)-3,8-diazabicyclo[3.2.1]octan-8-yl)pyridin-2-yl)oxy)cyclobutoxy)methyl)piperidin-1-yl)isoxazol-5-yl)-3-methylbutanoyl)-4-hydroxy-N-((S)-1-(4-(4-methylthiazol-5-yl)phenyl)ethyl)pyrrolidine-2-carboxamide], the Dmax (SW1573, % degraded, when tested at the top concentration of between 0.3 and 10 μM, read-out: BRM Dmax (%)) is more than 75%. The DC50 (degradation of BRM, read-out: BRM DC50) is less than 2.5 nM.

Take `Cc1ncsc1-c1ccc([C@H](C)NC(=O)[C@@H]2C[C@@H](O)CN2C(=O)[C@H](c2cc(OCCN3CCN(Cc4ccc(C(C)n5cc(-c6cc(-c7ccccc7O)nnc6N)cn5)cc4)CC3)no2)C(C)C)cc1` (stereo partly drawn) [compound 166, (2S,4R)-1-((2S)-2-(3-(2-(4-(4-(1-(4-(3-amino-6-(2-hydroxyphenyl)pyridazin-4-yl)-1H-pyrazol-1-yl)ethyl)benzyl)piperazin-1-yl)ethoxy)isoxazol-5-yl)-3-methylbutanoyl)-4-hydroxy-N-((S)-1-(4-(4-methylthiazol-5-yl)phenyl)ethyl)pyrrolidine-2-carboxamide]: the DC50 under setting [1] is 2.5 to 10 nM. The Dmax under setting [3] was more than 75%.

As for `Cc1ncsc1-c1ccc([C@@H](NC(=O)[C@@H]2C[C@@H](O)CN2C(=O)[C@H](c2cc(N3CCC(CN4CCC(O[C@H]5C[C@H](Oc6cc(N7C8CCC7CN(c7cc(-c9ccccc9O)nnc7N)C8)ccn6)C5)CC4)CC3)no2)C(C)C)C(F)F)cc1` [compound 571, (2S,4R)-1-((2S)-2-(3-(4-((4-((1r,3r)-3-((4-(3-(3-amino-6-(2-hydroxyphenyl)pyridazin-4-yl)-3,8-diazabicyclo[3.2.1]octan-8-yl)pyridin-2-yl)oxy)cyclobutoxy)piperidin-1-yl)methyl)piperidin-1-yl)isoxazol-5-yl)-3-methylbutanoyl)-N-((R)-2,2-difluoro-1-(4-(4-methylthiazol-5-yl)phenyl)ethyl)-4-hydroxypyrrolidine-2-carboxamide], the half-maximal degradation concentration (DC50) under setting [4] is more than 30 nM.

Turning to `Cc1ncsc1-c1ccc([C@H](C)NC(=O)[C@@H]2C[C@@H](O)CN2C(=O)[C@@H](c2cc(OC/C=C/c3ccc(O[C@H]4C[C@H](Oc5cc(N6C7CCC6CN(c6cc(-c8ccccc8O)nnc6N)C7)ccn5)C4)cn3)no2)C(C)C)cc1` [compound 86, (2S,4R)-1-((2R)-2-(3-(((E)-3-(5-((1r,3R)-3-((4-(3-(3-amino-6-(2-hydroxyphenyl)pyridazin-4-yl)-3,8-diazabicyclo[3.2.1]octan-8-yl)pyridin-2-yl)oxy)cyclobutoxy)pyridin-2-yl)allyl)oxy)isoxazol-5-yl)-3-methylbutanoyl)-4-hydroxy-N-((S)-1-(4-(4-methylthiazol-5-yl)phenyl)ethyl)pyrrolidine-2-carboxamide], the DC50 under setting [1] was less than 2.5 nM. Further, the maximal degradation (Dmax) under setting [2] was more than 75%.

Turning to `Cc1ncsc1-c1ccc([C@H](C)NC(=O)[C@@H]2C[C@@H](O)CN2C(=O)[C@@H](c2cc(N3CCC(CN4CCN(CC5CC(Oc6cc(N7C8CC[C@@H]7CN(c7cc(-c9ccccc9O)nnc7N)C8)ccn6)C5)CC4)CC3)no2)C(C)C)cc1` (stereo partly drawn) [compound 608, (2S,4R)-1-((2R)-2-(3-(4-((4-(((1r,3r)-3-((4-(3-(3-amino-6-(2-hydroxyphenyl)pyridazin-4-yl)-3,8-diazabicyclo[3.2.1]octan-8-yl)pyridin-2-yl)oxy)cyclobutyl)methyl)piperazin-1-yl)methyl)piperidin-1-yl)isoxazol-5-yl)-3-methylbutanoyl)-4-hydroxy-N-((S)-1-(4-(4-methylthiazol-5-yl)phenyl)ethyl)pyrrolidine-2-carboxamide], the “**Dmax (%) (% degraded)” value (BRM degradation, SW1573 cells, Table 2D) is on record as “A (A > 75)”. Besides, the half-maximal degradation concentration (DC50) under setting [4] is less than 2.5 nM.

In the case of `Cc1ncsc1-c1ccc([C@H](C)NC(=O)C2C[C@@H](O)CN2C(=O)[C@H](c2onc(OCCN3CCC(O[C@H]4C[C@H](Oc5cc(N6C7CCC6CN(c6cc(-c8ccccc8O)nnc6N)C7)ccn5)C4)CC3)c2Cl)C(C)C)cc1` (stereo partly drawn) [compound 361, (2S,4R)-1-((2S)-2-(3-(2-(4-((1r,3S)-3-((4-(3-(3-amino-6-(2-hydroxyphenyl)pyridazin-4-yl)-3,8-diazabicyclo[3.2.1]octan-8-yl)pyridin-2-yl)oxy)cyclobutoxy)piperidin-1-yl)ethoxy)-4-chloroisoxazol-5-yl)-3-methylbutanoyl)-4-hydroxy-N-((S)-1-(4-(4-methylthiazol-5-yl)phenyl)ethyl)pyrrolidine-2-carboxamide], the DC50 (target protein degradation, read-out: BRM DC50) was more than 30 nM.

Consider `Cc1ncsc1-c1ccc([C@@H](NC(=O)[C@@H]2C[C@@H](O)CN2C(=O)[C@@H](c2cc(OCCN3CCN(CCOc4cc(N5C6CCC5CN(c5cc(-c7ccccc7O)nnc5N)C6)ccn4)CC3)no2)C(C)C)C(=O)N(C)C2CCC2)cc1` [compound 246, (2S,4R)-1-((2R)-2-(3-(2-(4-(2-((4-(3-(3-amino-6-(2-hydroxyphenyl)pyridazin-4-yl)-3,8-diazabicyclo[3.2.1]octan-8-yl)pyridin-2-yl)oxy)ethyl)piperazin-1-yl)ethoxy)isoxazol-5-yl)-3-methylbutanoyl)-N-((R)-2-(cyclobutyl(methyl)amino)-1-(4-(4-methylthiazol-5-yl)phenyl)-2-oxoethyl)-4-hydroxypyrrolidine-2-carboxamide], for which, under setting [1], the 50% degradation concentration (DC50) is less than 2.5 nM. For the same molecule, the maximal degradation (Dmax) under setting [3] was more than 75%.

`Cc1cnn(C)c1-c1ccc([C@H](C)NC(=O)[C@@H]2C[C@@H](O)CN2C(=O)C(c2cc(OCCN3CCN(CCOc4cc(N5C6CCC5CN(c5cc(-c7ccccc7O)nnc5N)C6)ccn4)CC3)no2)C(C)C)cc1` (stereo in doubt) [compound 194, (2S,4R)-1-((2R)-2-(3-(2-(4-(2-((4-(3-(3-amino-6-(2-hydroxyphenyl)pyridazin-4-yl)-3,8-diazabicyclo[3.2.1]octan-8-yl)pyridin-2-yl)oxy)ethyl)piperazin-1-yl)ethoxy)isoxazol-5-yl)-3-methylbutanoyl)-N-((S)-1-(4-(1,4-dimethyl-1H-pyrazol-5-yl)phenyl)ethyl)-4-hydroxypyrrolidine-2-carboxamide]: the DC50 under setting [1] is less than 2.5 nM. The “Dmax (%) (% degraded)” value (BRM degradation, SW1573 cells, tested at the top concentration of between 0.3 and 10 μM) is on record as “A (A > 75)”.

The values above are taken from patent US12539292B2, “BRM targeting compounds and associated methods of use” (Arvinas Operations, Inc., priority 2018, dated 2026).
